The results in this text go back to patent US9023855B2, “Compounds” (Chiesi Farmaceutici S.p.A., priority 2011, dated 2015).

SMILES strings stand for the structures.

This test deals with T1, human neutrophil elastase (HNE) (Homo sapiens, UniProt P08246).
T1 construct: purchased Sigma E8140
T1 sequence (P08246 30-267): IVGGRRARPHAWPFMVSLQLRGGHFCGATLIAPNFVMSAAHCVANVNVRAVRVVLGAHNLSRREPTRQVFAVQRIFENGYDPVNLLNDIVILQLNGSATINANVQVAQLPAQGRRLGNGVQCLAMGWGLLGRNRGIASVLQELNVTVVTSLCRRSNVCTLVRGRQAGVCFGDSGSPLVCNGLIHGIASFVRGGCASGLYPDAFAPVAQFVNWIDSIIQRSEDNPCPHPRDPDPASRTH
Nature of the test: HNE enzyme assay (fluorogenic peptide substrate MeOSuc-Ala-Ala-Pro-Val-AMC). The test is classed as biochemical. The settings on record: human leukocyte elastase, substrate 100 μM, 25° C., 30 minutes, at least two separate experiments; read-out: HNE inhibition (IC50 values). The procedure:
Compounds of this invention were tested for potency in a human neutrophil elastase (HNE) enzyme activity assay.
Assays were performed in 96-well plates in a total assay volume of 100 μl. The final concentration of elastase enzyme (human leukocyte elastase, Sigma E8140) was 0.0036 units/well […]. The peptide substrate (MeOSuc-Ala-Ala-Pro-Val-AMC, Calbiochem #324740) was used at a final concentration of 100 μM. The final concentration of DMSO was 1% in the assay buffer (0.05M Tris.HCl, 0.1M NaCl, 0.1M CaCl2, 0.0005% brij-35, pH 7.5). The enzymatic reaction was started by addition of the enzyme and incubated at 25° C. for 30 minutes. After incubation, the reaction was stopped by addition of soybean trypsin inhibitor (Sigma T9003) at a final concentration of 50 μg/well. Fluorescence was measured using a Molecular Devices fluorescence plate reader using 380 nm excitation and 460 nm emission wavelengths.
A dose response to each compound was performed, and the effect of the compound in each experiment was expressed as a percentage inhibition of the control enzyme fluorescence. Dose response curves were plotted and compound potency (IC50) was determined. Compounds were tested in at least two separate experiments.
In general, IC50 refers to the point on the concentration scale where inhibition reaches its midpoint. Regarding `COC(=O)C1=C(C)N(c2cccc(C(F)(F)F)c2)c2nn(CCCN(C)C)c(=O)n2C1c1ccc(C#N)cc1` (centres unmarked) [Example 3], the 50% inhibitory concentration (IC50) is less than 20 nM.
Consider `COC(=O)C1=C(C)N(c2cccc(C(F)(F)F)c2)c2nn(CC(=O)N(C)CCCC[N+](C)(C)C)c(=O)n2C1c1ccc(C#N)cc1` (centres unmarked) [Example 31, [4-({2-[5-(4-Cyano-phenyl)-6-methoxycarbonyl-7-methyl-3-oxo-8-(3-trifluoromethyl-phenyl)-5,8-dihydro-[1,2,4]triazolo[4,3-a]pyrimidin-2-yl]-acetyl}-methyl-amino)-butyl]-trimethylammonium bromide], for which the IC50 was less than 20 nM.
Turning to `CCNC(=O)C1=C(C)N(c2cccc(C(F)(F)F)c2)c2n[nH]c(=O)n2C1c1ccc(C#N)cc1` (centres unmarked) [Example 12, 5-(4-Cyano-phenyl)-7-methyl-3-oxo-8-(3-trifluoromethyl-phenyl)-2,3,5,8-tetrahydro-[1,2,4]triazolo[4,3-a]pyrimidine-6-carboxylic acid ethylamide], the half-inhibitory concentration (IC50) lay in the range of 20 to 100 nM.
In the case of `COC(=O)C1=C(C)N(c2cccc(C(F)(F)F)c2)c2nn(CC(=O)N(C)CCCCC[N+](C)(C)C)c(=O)n2[C@@H]1c1ccc(C#N)cc1` [Example 34, (R)-[5-({2-[5-(4-Cyano-phenyl)-6-methoxycarbonyl-7-methyl-3-oxo-8-(3-trifluoromethyl-phenyl)-5,8-dihydro-[1,2,4]triazolo[4,3-a]pyrimidin-2-yl]-acetyl}-methyl-amino)pentyl]-trimethyl-ammonium chloride], the 50% inhibitory concentration (IC50) is less than 20 nM.
`COC(=O)C1=C(C)N(c2cccc(C(F)(F)F)c2)c2nn(CC(=O)N(C)CC[N+](C)(C)C)c(=O)n2C1c1ccc(C#N)cc1` (centres unmarked) [Example 27, [2-({2-[5-(4-Cyano-phenyl)-6-methoxycarbonyl-7-methyl-3-oxo-8-(3-trifluoromethyl-phenyl)-5,8-dihydro-[1,2,4]triazolo[4,3-a]pyrimidin-2-yl]-acetyl}-methyl-amino)-ethyl]trimethyl-ammonium bromide]: the half-maximal inhibitory concentration (IC50) was less than 20 nM.
With `COC(=O)C1=C(C)N(c2cccc(C(F)(F)F)c2)c2nn(CCCS(=O)(=O)CCC[N+](C)(C)C)c(=O)n2[C@@H]1c1ccc(C#N)cc1` [Example 38, (R)-(3-{3-[5-(4-Cyano-phenyl)-6-methoxycarbonyl-7-methyl-3-oxo-8-(3-trifluoromethyl-phenyl)-5,8-dihydro-[1,2,4]triazolo[4,3-a]pyrimidin-2-yl]-propane-1-sulfonyl}-propyl)-trimethylammonium chloride] the figure was less than 20 nM; with `COC(=O)C1=C(C)N(c2cccc(C(F)(F)F)c2)c2nn(CC(N)=O)c(=O)n2C1c1ccc(C#N)cc1` (centres unmarked) [Example 2, 2-Carbamoylmethyl-5-(4-cyanophenyl)-7-methyl-3-oxo-8-(3-trifluoromethylphenyl)-2,3,5,8-tetrahydro-[1,2,4]triazolo[4,3-a]pyrimidine-6-carboxylic acid methyl ester], less than 20 nM; with `COC(=O)C1=C(C)N(c2cccc(C(F)(F)F)c2)c2nn(CC(=O)N(C)CCN(C)C)c(=O)n2C1c1ccc(C#N)cc1` (centres unmarked) [Example 25, 5-(4-Cyano-phenyl)-2-{[(2-dimethylamino-ethyl)-methyl-carbamoyl]-methyl}-7-methyl-3-oxo-8-(3-trifluoromethyl-phenyl)-2,3,5,8-tetrahydro-[1,2,4]triazolo[4,3-a]pyrimidine-6-carboxylic acid methyl ester], less than 20 nM.
In the case of `COC(=O)C1=C(C)N(c2cccc(C(F)(F)F)c2)c2nn(Cc3ccc(CN(C)C)cc3)c(=O)n2C1c1ccc(C#N)cc1` (centres unmarked) [Example 21, 5-(4-Cyano-phenyl)-2-(4-dimethylaminomethyl-benzyl)-7-methyl-3-oxo-8-(3-trifluoromethyl-phenyl)-2,3,5,8-tetrahydro-[1,2,4]triazolo[4,3-a]pyrimidine-6-carboxylic acid methyl ester], the half-inhibitory concentration (IC50) is less than 20 nM.
Consider `COC(=O)C1=C(C)N(c2cccc(C(F)(F)F)c2)c2nn(CCCN3CCCC3=O)c(=O)n2C1c1ccc(C#N)cc1` (centres unmarked) [Example 24, 5-(4-Cyano-phenyl)-7-methyl-3-oxo-2-[3-(2-oxo-pyrrolidin-1-yl)-propyl]-8-(3-trifluoromethyl-phenyl)-2,3,5,8-tetrahydro-[1,2,4]triazolo[4,3-a]pyrimidine-6-carboxylic acid methyl ester], for which the IC50 is less than 20 nM.
Next, `COC(=O)C1=C(C)N(c2cccc(C(F)(F)F)c2)c2nn(CC(=O)N(C)CCCCC[N+](C)(C)C)c(=O)n2C1c1ccc(C#N)cc1` (centres unmarked) [Example 32, [5-({2-[5-(4-Cyano-phenyl)-6-methoxycarbonyl-7-methyl-3-oxo-8-(3-trifluoromethyl-phenyl)-5,8-dihydro-[1,2,4]triazolo[4,3-a]pyrimidin-2-yl]-acetyl}-methyl-amino)pentyl]-trimethyl-ammonium; bromide]: less than 20 nM.
For `COC(=O)C1=C(C)N(c2cccc(C(F)(F)F)c2)c2n[nH]c(=O)n2C1c1ccc(C#N)cc1S(C)(=O)=O` (centres unmarked) [Example 13, 5-(4-Cyano-2-methanesulfonyl-phenyl)-7-methyl-3-oxo-8-(3-trifluoromethyl-phenyl)-2,3,5,8-tetrahydro-[1,2,4]triazolo[4,3-a]pyrimidine-6-carboxylic acid methyl ester], the IC50 was less than 20 nM.
Next, `COC(=O)C1=C(C)N(c2cccc(C(F)(F)F)c2)c2nn(CCCN(C)S(C)(=O)=O)c(=O)n2C1c1ccc(C#N)cc1` (centres unmarked) [Example 36, 5-(4-Cyano-phenyl)-2-[3-(methanesulfonyl-methyl-amino)-propyl]-7-methyl-3-oxo-8-(3-trifluoromethyl-phenyl)-2,3,5,8-tetrahydro-[1,2,4]triazolo[4,3-a]pyrimidine-6-carboxylic acidmethyl ester]: less than 20 nM; `COC(=O)C1=C(C)N(c2cccc(C(F)(F)F)c2)c2nn(CC(=O)N(C)CCCCCN(C)C)c(=O)n2C1c1ccc(C#N)cc1` (centres unmarked) [Example 30, 5-(4-Cyano-phenyl)-2-{[(5-dimethylamino-pentyl)-methyl-carbamoyl]-methyl}-7-methyl-3-oxo-8-(3-trifluoromethyl-phenyl)-2,3,5,8-tetrahydro-[1,2,4]triazolo[4,3-a]pyrimidine-6-carboxylic acid methyl ester]: less than 20 nM.
For the molecule `COC(=O)C1=C(C)N(c2cccc(C(F)(F)F)c2)c2nn(CCCS(C)(=O)=O)c(=O)n2C1c1ccc(C#N)cc1` (centres unmarked) [Example 16, 5-(4-Cyano-phenyl)-2-(3-methanesulfonyl-propyl)-7-methyl-3-oxo-8-(3-trifluoromethyl-phenyl)-2,3,5,8-tetrahydro-[1,2,4]triazolo[4,3-a]pyrimidine-6-carboxylic acid methyl ester], the IC50 was less than 20 nM.
`COC(=O)C1=C(C)N(c2cccc(C(F)(F)F)c2)c2nn(CCCS(=O)(=O)CCC[N+](C)(C)C)c(=O)n2C1c1ccc(C#N)cc1` (centres unmarked) [Example 37, (3-{3-[5-(4-Cyano-phenyl)-6-methoxycarbonyl-7-methyl-3-oxo-8-(3-trifluoromethyl-phenyl)-5,8-dihydro-[1,2,4]triazolo[4,3-a]pyrimidin-2-yl]-propane-1-sulfonyl}-propyl)-trimethylammonium toluene-4-sulfonate]: the IC50 was less than 20 nM.
For the molecule `COC(=O)C1=C(C)N(c2cccc(C(F)(F)F)c2)c2nn(Cc3ccc(S(C)(=O)=O)cc3)c(=O)n2[C@@H]1c1ccc(C#N)cc1` [Example 17, (R)-5-(4-Cyano-phenyl)-2-(4-methanesulfonyl-benzyl)-7-methyl-3-oxo-8-(3-trifluoromethyl-phenyl)-2,3,5,8-tetrahydro-[1,2,4]triazolo[4,3-a]pyrimidine-6-carboxylic acid methyl ester], the IC50 is less than 20 nM.
For `C=CCn1nc2n(c1=O)C(c1ccc(C#N)cc1)C(C(=O)OC)=C(C)N2c1cccc(C(F)(F)F)c1` (centres unmarked) [Example 5, 2-Allyl-5-(4-cyanophenyl)-7-methyl-3-oxo-8-(3-trifluoromethyl-phenyl)-2,3,5,8-tetrahydro-[1,2,4]triazolo[4,3-a]pyrimidine-6-carboxylic acid methyl ester], the IC50 is less than 20 nM.
With `COC(=O)C1=C(C)N(c2cccc(C(F)(F)F)c2)c2nn(CCc3ccc(S(C)(=O)=O)cc3)c(=O)n2[C@@H]1c1ccc(C#N)cc1` [Example 20, (R)-5-(4-Cyano-phenyl)-2-[2-(4-methanesulfonyl-phenyl)-ethyl]-7-methyl-3-oxo-8-(3-trifluoromethyl-phenyl)-2,3,5,8-tetrahydro-[1,2,4]triazolo[4,3-a]pyrimidine-6-carboxylic acid methyl ester], the concentration for half-maximal inhibition (IC50) is less than 20 nM.
Turning to `COC(=O)C1=C(C)N(c2cccc(C(F)(F)F)c2)c2nn(CC(=O)N(C)CCCCCN(C)C)c(=O)n2[C@@H]1c1ccc(C#N)cc1` [Example 33, (R)-5-(4-Cyano-phenyl)-2-{[(5-dimethylamino-pentyl)-methyl-carbamoyl]-methyl}-7-methyl-3-oxo-8-(3-trifluoromethyl-phenyl)-2,3,5,8-tetrahydro-[1,2,4]triazolo[4,3-a]pyrimidine-6-carboxylic acid methyl ester], the half-maximal inhibitory concentration (IC50) was less than 20 nM.
